The text below walks through data of US7932262B2 (Novartis AG, priority 2006, dated 2011).

Structures are written as SMILES.

The target in one assay is T1, PDK1 kinase (Homo sapiens, UniProt O15530).
T1 sequence (O15530 1-556): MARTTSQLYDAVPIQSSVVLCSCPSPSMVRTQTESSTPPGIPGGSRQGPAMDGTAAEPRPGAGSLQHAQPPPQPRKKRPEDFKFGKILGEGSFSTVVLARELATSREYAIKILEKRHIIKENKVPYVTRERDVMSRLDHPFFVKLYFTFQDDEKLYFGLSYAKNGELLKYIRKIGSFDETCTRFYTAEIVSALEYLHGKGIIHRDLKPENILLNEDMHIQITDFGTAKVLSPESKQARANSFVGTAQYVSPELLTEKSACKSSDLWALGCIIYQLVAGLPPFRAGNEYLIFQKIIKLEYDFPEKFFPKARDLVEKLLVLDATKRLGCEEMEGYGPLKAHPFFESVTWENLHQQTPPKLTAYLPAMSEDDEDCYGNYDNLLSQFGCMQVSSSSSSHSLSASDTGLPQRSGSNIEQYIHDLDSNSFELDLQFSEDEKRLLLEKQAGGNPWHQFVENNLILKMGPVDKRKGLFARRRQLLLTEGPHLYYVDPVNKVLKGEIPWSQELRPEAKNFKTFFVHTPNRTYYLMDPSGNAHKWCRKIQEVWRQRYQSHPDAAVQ
In words: PDK1 Kinase Alpha Screen Assay. Conditions: PDK1 Kinase Alpha Screen Assay; read-out: PDK1 IC50. The assay is classed as biochemical. In a few lines:
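AlphaScreen readout: phospho-peptide captured by phospho-(Ser/Thr) PKA substrate antibody (0.3 mg/ml) on protein A acceptor beads, biotin peptide on streptavidin donor beads (25 μg/ml each), overnight at room temperature. Kinase step used 50 nM PDK1-4 peptide, 10 uM ATP, 3-18 hours.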

The test system of the next assay is PC-3 cells. Put plainly: Cell Proliferation Assay (Cell Titer Glo), PC-3 cell line. The format is cell-based. Conditions: Homo sapiens, PC-3, Cell Proliferation Assay, PC3; read-out: CPEC50 PC3. Summed up: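 Cell Titer Glo luminescence, read after fresh medium replaced the dosing medium, gave viability of PC-3 cells plated at 1000 cells/well. Compounds, 1:3 serially diluted in DMSO at 500× and then in medium, were added after 3-5 h adhesion and incubated 3 days at 37° C.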

Consider `CC(C)NC(=O)c1ccc(Nc2ncc3c(Cl)ccc(OC4CNC4)c3n2)cc1` [Compound 612, 4-(8-(azetidin-3-yloxy)-5-chloroquinazolin-2-ylamino)-N-isopropylbenzamide], for which the IC50 on PDK1 kinase is < 5 µM. In addition, the EC50 in the assay on PC-3 cells lay in the range of 5 to 10 µM.

As for `O=C(NC1CC1)c1ccc(Nc2ncc3c(Cl)ccc(OC4CNC4)c3n2)cc1` [Compound 613, 4-(8-(azetidin-3-yloxy)-5-chloroquinazolin-2-ylamino)-N-cyclopropylbenzamide], the IC50 on PDK1 kinase is < 5 µM. For the same molecule, the EC50 with PC-3 cells was < 5 µM.

For `c1cc(N2CCOCC2)ccc1Nc1ncc2ccc(OC3CCNCC3)cc2n1` [Compound 614, N-(4-morpholinophenyl)-7-(piperidin-4-yloxy)quinazolin-2-amine], the IC50 at PDK1 kinase is < 5 µM. In addition, the EC50 in the assay on PC-3 cells was < 5 µM.

For the molecule `CC(C)NS(=O)(=O)c1ccc(Nc2ncc3c(Cl)ccc(OC4CNC4)c3n2)cc1` [Compound 615, 4-(8-(azetidin-3-yloxy)-5-chloroquinazolin-2-ylamino)-N-isopropylbenzenesulfonamide], on PDK1 kinase, the concentration for half-maximal inhibition (IC50) was < 5 µM. Besides, in the assay on PC-3 cells, the EC50 is < 5 µM.

Turning to `O=S(=O)(c1cccc(Nc2ncc3c(Cl)ccc(OC4CNC4)c3n2)c1)N1CCOCC1` [Compound 616, 8-(azetidin-3-yloxy)-5-chloro-N-(3-(morpholinosulfonyl)phenyl)quinazolin-2-amine], the IC50 on PDK1 kinase was < 5 µM. The EC50 with PC-3 cells is < 5 µM.

For the molecule `Clc1ccc(OC2CCNCC2)c2nc(Nc3cccc(-c4cc[nH]n4)c3)ncc12` [Compound 617, N-(3-(1H-pyrazol-3-yl)phenyl)-5-chloro-8-(piperidin-4-yloxy)quinazolin-2-amine], on PDK1 kinase, the IC50 was < 5 µM. Further, in the assay on PC-3 cells, the EC50 lay in the range of 5 to 10 µM.

Consider `NS(=O)(=O)c1ccc(Nc2ncc3ccccc3n2)cc1` [Compound 618, 4-(quinazolin-2-ylamino)benzenesulfonamide], for which, on PDK1 kinase, the half-inhibitory concentration (IC50) is < 5 µM. Further, in the assay on PC-3 cells, the EC50 is 5 to 10 µM.

For `CC(C)N1CCC(Oc2cc3nc(Nc4ccc(N5CCOCC5)cc4)ncc3cc2-c2nccs2)CC1` [Compound 619, 7-(1-isopropylpiperidin-4-yloxy)-N-(4-morpholinophenyl)-6-(thiazol-2-yl)quinazolin-2-amine], at PDK1 kinase, the IC50 was < 5 µM. The EC50 in the assay with PC-3 cells is < 5 µM.

On to `CC(C)N1CCC(Oc2cc3nc(Nc4ccc(N5CCOCC5)cc4)ncc3cc2Br)CC1` [Compound 620, 6-bromo-7-(1-isopropylpiperidin-4-yloxy)-N-(4-morpholinophenyl)quinazolin-2-amine], for which the IC50 at PDK1 kinase was < 5 µM. In addition, in the assay on PC-3 cells, the EC50 is < 5 µM.

With `CC(C)N1CCC(Oc2cc3nc(Nc4ccc(N5CCOCC5)cc4)ncc3cc2-c2cn[nH]c2)CC1` [Compound 621, 7-(1-isopropylpiperidin-4-yloxy)-N-(4-morpholinophenyl)-6-(1H-pyrazol-4-yl)quinazolin-2-amine], the 50% inhibitory concentration (IC50) on PDK1 kinase was < 5 µM. The EC50 in the assay on PC-3 cells is < 5 µM.

For `C#Cc1cc(-c2ccc(NCCN3CCCC3)nc2)c2nc(Nc3ccc(S(N)(=O)=O)cc3)ncc2c1` [Compound 634, 4-(6-ethynyl-8-(6-(2-(pyrrolidin-1-yl)ethylamino)pyridin-3-yl)quinazolin-2-ylamino)benzenesulfonamide], the IC50 at PDK1 kinase was < 5 µM. Besides, in the assay with PC-3 cells, the EC50 is < 5 µM.

Consider `C#Cc1cc(OC2CN3CCC2CC3)c2nc(Nc3ccc(S(N)(=O)=O)cc3)ncc2c1` (centres unmarked) [Compound 635, 4-(6-ethynyl-8-(quinuclidin-3-yloxy)quinazolin-2-ylamino)benzenesulfonamide], for which the IC50 at PDK1 kinase was < 5 µM. The EC50 with PC-3 cells was < 5 µM.

As to `C#Cc1cc2cnc(Nc3ccc(C(=O)NC(C)C)cc3)nc2cc1OC1CCN(C(C)C)CC1` [Compound 636, 4-(6-ethynyl-7-(1-isopropylpiperidin-4-yloxy)quinazolin-2-ylamino)-N-isopropylbenzamide], the IC50 at PDK1 kinase is < 5 µM. The EC50 with PC-3 cells is < 5 µM.

As to `CC(C)NC(=O)c1ccc(Nc2ncc3cc(C4CC4)c(OC4CCN(C(C)C)CC4)cc3n2)cc1` [Compound 637, 4-(6-cyclopropyl-7-(1-isoproylpiperidin-4-yloxy)quinazolin-2-ylamino)-N-isopropylbenzamide], at PDK1 kinase, the half-inhibitory concentration (IC50) was < 5 µM. In addition, the EC50 in the assay on PC-3 cells was < 5 µM.

Take `CC(C)NC(=O)c1ccc(Nc2ncc3cc(-c4nccs4)c(OC4CCN(C(C)C)CC4)cc3n2)cc1` [Compound 638, N-isopropyl-4-(7-(1-isoproylpiperidin-4-yloxy)-6-(thiazol-2-yl)quinazolin-2-ylamino)benzamide]: on PDK1 kinase, the 50% inhibitory concentration (IC50) was < 5 µM. Also, the EC50 with PC-3 cells was < 5 µM.

As for `CC(C)NC(=O)c1ccc(Nc2ncc3cc(C#N)c(OC4CCN(C(C)C)CC4)cc3n2)cc1` [Compound 639], the IC50 at PDK1 kinase is < 5 µM. In the assay with PC-3 cells, the EC50 was < 5 µM.

For `N#Cc1cc2cnc(Nc3ccc(C(=O)N4CCOCC4)cc3)nc2cc1OC1CCNCC1` [Compound 640, 2-(4-(morpholine-4-carbonyl)phenylamino)-7-(piperidin-4-yloxy)quinazoline-6-carbonitrile], at PDK1 kinase, the IC50 was < 5 µM. Further, in the assay on PC-3 cells, the EC50 is < 5 µM.

For `C#Cc1cc2cnc(Nc3ccc(C(=O)N4CCOCC4)cc3)nc2cc1OC1CCNCC1` [Compound 641], the IC50 on PDK1 kinase is < 5 µM. Further, the EC50 in the assay with PC-3 cells was < 5 µM.

With `O=C(c1ccc(Nc2ncc3cc(C4CC4)c(OC4CCNCC4)cc3n2)cc1)N1CCOCC1` [Compound 642, (4-(6-cyclopropyl-7-(piperidin-4-yloxy)quinazolin-2-ylamino)phenyl)(morpholino)methanone], at PDK1 kinase, the 50% inhibitory concentration (IC50) was < 5 µM. Besides, the EC50 in the assay on PC-3 cells was < 5 µM.

For `c1cc(N2CCOCC2)ccc1Nc1ncc2cc(C3CC3)c(OC3CCNCC3)cc2n1` [Compound 643, 6-cyclopropyl-N-(4-morpholinophenyl)-7-(piperidin-4-yloxy)quinazolin-2-amine], the IC50 at PDK1 kinase was < 5 µM. Also, in the assay on PC-3 cells, the EC50 is < 5 µM.

With `N#Cc1cc2cnc(Nc3ccc(N4CCOCC4)cc3)nc2cc1OC1CCNCC1` [Compound 644, 2-(4-morpholinophenylamino)-7-(piperidin-4-yloxy)quinazoline-6-carbonitrile], the IC50 on PDK1 kinase is < 5 µM. Further, the EC50 in the assay on PC-3 cells was < 5 µM.

Consider `Brc1cc2cnc(Nc3ccc(N4CCOCC4)cc3)nc2cc1OC1CCNCC1` [Compound 650, 6-bromo-N-(4-morpholinophenyl)-7-(piperidin-4-yloxy)quinazolin-2-amine], for which the IC50 at PDK1 kinase was < 5 µM. Further, the EC50 in the assay on PC-3 cells was < 5 µM.

For `COc1ccc(Cl)c2cnc(Nc3cc(CN(C)C)cc(NC(C)=O)c3)nc12` [Compound 691], the IC50 at PDK1 kinase is < 5 µM. Further, the EC50 in the assay with PC-3 cells fell in the range of 5 to 10 µM.

With `O=C(c1ccc(Nc2ncc3c(Cl)ccc(OC4CCNCC4)c3n2)cc1Cl)N1CCOCC1` [Compound 692, (2-chloro-4-(5-chloro-8-(piperidin-4-yloxy)quinazolin-2-ylamino)phenyl) (morpholino)methanone], the concentration for half-maximal inhibition (IC50) on PDK1 kinase was < 5 µM. Also, the EC50 in the assay with PC-3 cells was < 5 µM.

Consider `O=C(c1ccc(Nc2ncc3c(Cl)ccc(NC4CCNCC4)c3n2)cc1)N1CCOCC1` [Compound 693, (4-(5-chloro-8-(piperidin-4-ylamino)quinazolin-2-ylamino)phenyl)(morpholino)methanone], for which the IC50 at PDK1 kinase is < 5 µM. In addition, the EC50 with PC-3 cells was < 5 µM.
